Measurements as given in PMC6124754, “Characterization of new, efficient Mycobacterium tuberculosis topoisomerase-I inhibitors and their interaction with human ABC multidrug transporters” (PLoS ONE, 2018).
In brackets after ≈: the same amount, converted by molar mass. Entries after “also recorded” stand apart in the source; their conditions may differ. Read-outs that look alike come from different tables or passages of the source.

Columns and labels:
HFF cell line = assay: Cytotoxicity, PrestoBlue 72 h, HFF; format: cell-based, human; conditions: Non-toxic = not toxic up to 20 μM, read-out: Toxicity in HFF cell line, IC50
Method: (§1) The toxic effects of the selected MtTopo-I inhibitory Vichem compounds were tested in three cell lines, HFF (human foreskin fibroblast), HEK293 (human embryonic kidney) and A431 (human epidermoid carcinoma) cell lines, obtained from ATCC. Establishment of ABC transporter-expressing A431cell lines was achieved by retroviral transduction of the cells as described previously.
(§2) For cytotoxicity measurements the cells were seeded in a 96-well culture plate at 5,000 cells/well (A431, HEK293) or 6000 cells/well (HFF) and incubated overnight. […] After 72 hours of incubation viability was assessed by PrestoBlue® assay (Invitrogen). IC50 values were obtained by sigmoidal curve fitting in the GraphPad Prism software. All experiments were performed in triplicates and repeated at least in three independent experiments. DMSO, used as solvent of the compounds, had no effect on viability at the applied concentration.

human ABCG2 [1] = target: T1, human ABCG2 (Homo sapiens, UniProt Q9UNQ0); assay: Cellular transport assay, DCV or mitoxantrone uptake in ABCG2-overexpressing PLB cells; format: cell-based; parameters: expressed in transfected cells; host or cells: PLB (human lymphoblastoid) cells, lentiviral transduction; conditions: S6 summary table; further: key: 0: no observed effect; +: effect observed in the assay; In the ATPase assay showing only inhibition, the - sign is applied
T1 sequence (Q9UNQ0 1-655): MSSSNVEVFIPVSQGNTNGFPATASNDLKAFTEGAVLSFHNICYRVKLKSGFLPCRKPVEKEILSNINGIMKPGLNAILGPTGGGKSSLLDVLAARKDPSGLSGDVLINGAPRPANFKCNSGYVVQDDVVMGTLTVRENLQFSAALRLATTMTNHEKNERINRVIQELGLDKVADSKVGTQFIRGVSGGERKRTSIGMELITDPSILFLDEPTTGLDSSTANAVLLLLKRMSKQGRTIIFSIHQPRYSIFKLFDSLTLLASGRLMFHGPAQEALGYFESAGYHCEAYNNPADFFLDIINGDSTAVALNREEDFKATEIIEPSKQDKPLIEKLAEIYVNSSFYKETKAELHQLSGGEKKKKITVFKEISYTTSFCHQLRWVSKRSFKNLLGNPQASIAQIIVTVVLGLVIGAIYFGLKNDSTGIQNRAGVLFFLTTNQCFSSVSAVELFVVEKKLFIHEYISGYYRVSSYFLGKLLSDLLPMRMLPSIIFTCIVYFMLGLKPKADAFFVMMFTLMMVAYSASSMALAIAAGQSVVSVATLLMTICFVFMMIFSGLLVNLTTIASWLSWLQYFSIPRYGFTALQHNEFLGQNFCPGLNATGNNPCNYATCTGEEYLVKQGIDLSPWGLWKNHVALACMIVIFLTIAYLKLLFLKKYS
Method: (§3) For cellular transport assays, mammalian PLB (lymphoblastoid) cell lines, overexpressing ABCB1 or ABCG2 were used. The parental PLB cell line was purchased from ATCC, and ABCB1 or ABCG2 overexpressing cell lines were established by using lentiviral vectors for human ABC transporters as described earlier in [29]. The transport assays were carried out in 96-well plates. 1x10^5 cells were incubated in the presence of 0.1 μM Calcein-AM or 1 μM DCV (Dye Cycler Violet) for the ABCB1 and for the ABCG2 assays, respectively. The assay was performed in HPMI medium (NaCl 120 mM, KCl 5 mM, MgCl2 0.4 mM, CaCl2 0.04 mM, HEPES 10 mM, NaHCO3 10 mM, glucose 10 mM, Na2HPO4 5 mM; pH 7.4). Fluorescence of the cells was detected using a Victor X3 plate reader (for Calcein, exc. at 485 nm, em. at 535 nm) or the Enspire 2300 (Perkin Elmer) plate reader (for DCV, exc. at 360 nm, em. at 440 nm). Kinetics of fluorescence intensity changes were analyzed to determine relative inhibition, compared to that of a reference agent, providing full inhibition of the ABC transporter. Two of the Vichem compounds examined (VCC979812 and VCC38977) were not compatible with the DCV uptake assay because of their intrinsic fluorescence, therefore for these two compounds ABCG2 transport inhibition was characterized by following mitoxantrone uptake. Mitoxantrone uptake was measured by flow cytometry (BD FACSCanto at 633 nm) by 20 minutes incubation in the presence of 7.5 μM mitoxantrone. Each compound was measured in at least three independent experiments with three parallels in each case. DMSO, used as a solvent of compounds had no effect in this assay at the applied concentration.

[2] = test system: ABCB1-overexpressing A431 cell line; conditions: 72 h; for Resistance modulation by ABCB1 (fold increase in IC50): ABCB1-expressing versus parental A431 cells; for ABC transporter modified cytotoxicity, ABCB1 (summary): human
[3] = test system: HFF, HEK293 and A431 cell lines; format: cell-based, human
Method: as §1, §2

HEK293 cell line = assay: Cytotoxicity, PrestoBlue 72 h, HEK293; format: cell-based, human; conditions: for IC50: Homo sapiens, HEK293, Non-toxic = not toxic up to 20 μM, read-out: Toxicity in HEK293 cell line, IC50
Method: as §1, §2

MtTopo-I = target: T2, MtTopo-I (Mycobacterium tuberculosis, UniProt P9WG49); assay: DNA relaxation assay of supercoiled pUC18 DNA by MtTopo-I; format: biochemical; conditions: minimum concentration providing complete inhibition
T2 construct: made in house; host or cells: E. coli

human ABCB1 [4] = target: T3, human ABCB1 (Homo sapiens, UniProt P08183); assay: Vanadate-sensitive ATPase activity assay in Sf9 membrane vesicles, ABCB1; format: biochemical; parameters: made in house; host or cells: Sf9 insect cells (baculovirus), membrane vesicles; ABCB1 ATPase Vmax: unit not given here; conditions: for Effect on ABCB1-ATPase activity (in words): Sf9 membrane vesicles, 0.1–10 μM for the stimulation in b53; for ABCB1 ATPase Vmax: vanadate-sensitive ATPase, from dose-response curves, basal 5.7±0.7; for ABC transporter ATPase assay, ABCB1 (summary): S6 summary table; for ABCB1 ATPase, concentration at Vmax: concentration at which Vmax was seen; on ABC transporter ATPase assay, ABCB1 (summary): key: 0: no observed effect; +: effect observed in the assay; In the ATPase assay showing only inhibition, the - sign is applied
parental A431 cell line = assay: Cytotoxicity, PrestoBlue 72 h, parental A431; format: cell-based, human; conditions: Non-toxic = not toxic up to 20 μM, read-out: Toxicity in parental A431 cell line, IC50
Method: as §1, §2

[5] = test system: ABCG2-overexpressing A431 cell line; conditions: 72 h; for Resistance modulation by ABCG2 (fold increase in IC50): ABCG2-expressing versus parental A431 cells; for ABC transporter modified cytotoxicity, ABCG2 (summary): human
human ABCB1 [6] = target: T3, human ABCB1; assay: Cellular transport assay, Calcein-AM uptake in ABCB1-overexpressing PLB cells; format: cell-based; conditions: S6 summary table; further: key: 0: no observed effect; +: effect observed in the assay; In the ATPase assay showing only inhibition, the - sign is applied
Method: as §3

H37Rv Mtb strain = assay: H37Rv growth inhibition, resazurin reduction microplate assay (REMA); format: cell-based, Mycobacterium tuberculosis; conditions: for MIC90: Mycobacterium tuberculosis, H37RV, read-out: MIC90 of compounds in H37Rv growth test; for Toxicity in H37Rv assay (summary): S6 summary table; for Growth inhibition of H37Rv mycobacteria (in words): tested up to 20 μM
human ABCG2 [7] = target: T1, human ABCG2; assay: Vanadate-sensitive ATPase activity assay in Sf9 membrane vesicles, ABCG2; format: biochemical; parameters: made in house; host or cells: Sf9 insect cells (baculovirus), membrane vesicles; ABCG2 ATPase, concentration at Vmax: unit not given here; conditions: for ABC transporter ATPase assay, ABCG2 (summary): S6 summary table; for ABCG2 ATPase Vmax: vanadate-sensitive ATPase, from dose-response curves, basal 22±1.4; for ABCG2 ATPase, concentration at Vmax: concentration at which Vmax was seen
[8] = minimum concentration providing 90% growth inhibition, 20 to 0.04 μM, N.I. = no inhibition observed up to 20 μM

T3 sequence (P08183 whole entry): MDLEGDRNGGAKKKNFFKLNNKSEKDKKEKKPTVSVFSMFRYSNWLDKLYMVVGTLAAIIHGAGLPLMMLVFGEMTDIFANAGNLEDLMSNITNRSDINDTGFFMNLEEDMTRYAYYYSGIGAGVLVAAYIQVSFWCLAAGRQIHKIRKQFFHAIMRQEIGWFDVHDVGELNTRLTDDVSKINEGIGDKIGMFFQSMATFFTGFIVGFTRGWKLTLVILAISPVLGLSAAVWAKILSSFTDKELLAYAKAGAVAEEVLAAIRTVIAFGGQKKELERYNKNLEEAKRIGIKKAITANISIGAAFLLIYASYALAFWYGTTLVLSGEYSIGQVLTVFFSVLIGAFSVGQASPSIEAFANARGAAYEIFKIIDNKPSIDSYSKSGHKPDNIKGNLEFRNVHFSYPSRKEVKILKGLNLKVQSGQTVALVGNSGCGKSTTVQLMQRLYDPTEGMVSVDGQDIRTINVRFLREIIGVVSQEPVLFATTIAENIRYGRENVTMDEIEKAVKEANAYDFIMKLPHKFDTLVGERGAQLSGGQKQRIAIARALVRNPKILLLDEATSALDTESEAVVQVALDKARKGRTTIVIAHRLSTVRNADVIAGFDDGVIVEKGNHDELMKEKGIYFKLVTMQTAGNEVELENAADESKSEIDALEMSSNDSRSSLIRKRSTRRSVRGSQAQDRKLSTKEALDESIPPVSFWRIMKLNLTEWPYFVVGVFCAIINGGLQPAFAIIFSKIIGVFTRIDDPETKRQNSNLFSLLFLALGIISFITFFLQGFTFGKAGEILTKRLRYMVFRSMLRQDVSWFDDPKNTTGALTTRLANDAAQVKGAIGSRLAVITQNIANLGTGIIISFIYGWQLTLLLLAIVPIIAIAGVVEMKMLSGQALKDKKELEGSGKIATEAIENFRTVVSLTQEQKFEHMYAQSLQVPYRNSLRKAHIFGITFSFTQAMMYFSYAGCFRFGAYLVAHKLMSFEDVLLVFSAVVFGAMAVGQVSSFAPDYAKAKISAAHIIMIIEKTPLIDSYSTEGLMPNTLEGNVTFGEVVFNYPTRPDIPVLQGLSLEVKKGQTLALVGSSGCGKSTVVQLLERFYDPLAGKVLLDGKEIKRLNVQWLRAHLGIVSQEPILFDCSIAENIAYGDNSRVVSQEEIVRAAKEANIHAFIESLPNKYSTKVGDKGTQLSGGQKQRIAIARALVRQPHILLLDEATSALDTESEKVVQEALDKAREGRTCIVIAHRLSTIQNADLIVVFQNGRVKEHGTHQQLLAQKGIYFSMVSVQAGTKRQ
T2 sequence (P9WG49 whole entry): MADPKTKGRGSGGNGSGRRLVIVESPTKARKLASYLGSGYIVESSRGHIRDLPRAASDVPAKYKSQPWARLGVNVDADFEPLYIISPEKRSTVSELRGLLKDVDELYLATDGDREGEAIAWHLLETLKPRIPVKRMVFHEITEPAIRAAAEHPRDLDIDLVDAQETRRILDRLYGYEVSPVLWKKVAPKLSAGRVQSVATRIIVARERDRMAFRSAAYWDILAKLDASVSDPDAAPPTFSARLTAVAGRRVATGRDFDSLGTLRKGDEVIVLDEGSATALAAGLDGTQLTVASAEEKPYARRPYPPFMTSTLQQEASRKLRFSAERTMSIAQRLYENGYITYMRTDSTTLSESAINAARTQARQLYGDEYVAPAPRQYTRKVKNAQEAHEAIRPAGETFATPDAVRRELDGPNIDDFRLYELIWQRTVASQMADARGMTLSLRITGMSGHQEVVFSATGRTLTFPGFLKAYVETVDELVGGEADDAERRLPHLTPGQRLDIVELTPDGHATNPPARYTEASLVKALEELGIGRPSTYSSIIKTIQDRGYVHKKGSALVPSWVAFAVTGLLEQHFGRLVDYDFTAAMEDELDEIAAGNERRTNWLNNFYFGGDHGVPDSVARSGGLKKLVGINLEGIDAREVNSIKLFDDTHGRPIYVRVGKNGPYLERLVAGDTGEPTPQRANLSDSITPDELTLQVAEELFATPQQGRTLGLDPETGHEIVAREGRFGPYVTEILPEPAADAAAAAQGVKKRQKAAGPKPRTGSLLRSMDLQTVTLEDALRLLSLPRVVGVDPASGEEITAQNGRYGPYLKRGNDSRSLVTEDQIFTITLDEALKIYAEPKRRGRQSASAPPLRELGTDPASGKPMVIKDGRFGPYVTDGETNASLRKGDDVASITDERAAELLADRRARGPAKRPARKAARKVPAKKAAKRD

Row | Structure (SMILES) | IC50 (HFF cell line; Homo sapiens, HFF) [µM] | IC50 (HFF cell line) [µM] | ABC transporter transport assay, ABCG2 (summary) (human ABCG2 [1]) | Resistance modulation by ABCB1 (fold increase in IC50) [2] | ABC transporter modified cytotoxicity, ABCB1 (summary) [2] | Toxicity in human cell lines (in words) [3] | Toxicity in mammalian cell lines (summary) [3] | IC50 (HEK293 cell line) [µM] | Complete inhibition of MtTopoI (MtTopo-I) [µM] | Effect on ABCB1-ATPase activity (in words) (human ABCB1 [4]) | ABCB1 ATPase Vmax (human ABCB1 [4]) | IC50 (parental A431 cell line; Homo sapiens, A-431, 72 h) [µM] | IC50 (parental A431 cell line) [µM] | Resistance modulation by ABCG2 (fold increase in IC50) [5] | ABC transporter modified cytotoxicity, ABCG2 (summary) [5] | ABC transporter transport assay, ABCB1 (summary) (human ABCB1 [6]) | MIC90 (H37Rv Mtb strain; [8]) [µM] | Toxicity in H37Rv assay (summary) (H37Rv Mtb strain) | ABC transporter ATPase assay, ABCG2 (summary) (human ABCG2 [7]) | ABCG2 ATPase Vmax (human ABCG2 [7]) | further results
1 | CN(C)CCCNc1nc(/C=C/c2ccc(Cl)cc2)nc2cc3ccccc3cc12 [VCC450822] | < 5 | 2.5 to 5 | 0 | 0.97±0.05 | 0 | toxic | + | 10 to 20 | 10.0 | well measurable stimulatory effect; also recorded: slight stimulation of the ABCB1-ATPase activity at lower concentrations; also recorded: strongly inhibited ATPase activity at higher concentrations; also recorded: slightly increased | 10.5±1.5 | < 5 | 3.5 | 1.0±0.03 | 0 | 0 | 5.1 (≈ 2.13 µg/mL) | + | 0 | 23.3±2 | Resistance modulation by ABCB1 (fold increase in IC50) ([2]; listed as VCC480522): no difference; Resistance modulation by ABCG2 (fold increase in IC50) ([5]; listed as VCC480522): no difference; Growth inhibition of H37Rv mycobacteria (in words) (H37Rv Mtb strain): effectively inhibited the growth
2 | COc1ccc(/C=C/c2nc(NCCCN3CCOCC3)c3cc4ccccc4cc3n2)cc1 [VCC478498] | < 5 | 2.5 to 5 | + |  | 0 | toxic | + | 10 to 20 | 10 to 25 |  | 7.2±1.8 | < 5 | 3.03 |  | 0 | + | 0.6 (≈ 0.273 µg/mL) | + | - | 21.5±2.4 | ABC transporter ATPase assay, ABCB1 (summary) (human ABCB1 [4]): 0; ABCB1 ATPase, concentration at Vmax (human ABCB1 [4]): 6.25 µM; Growth inhibition of H37Rv mycobacteria (in words) (H37Rv Mtb strain): effectively inhibited the growth; Effect on ABCG2-ATPase activity (in words) (human ABCG2 [7]; Sf9 membrane vesicles, 0.1–10 μM for stimulation, 50 μM for inhibition): only an inhibition; ABCG2 ATPase, concentration at Vmax (human ABCG2 [7]): 2
3 | CC(C)CCNc1nc2cc3ccccc3cc2nc1NCCC(C)C [VCC979812] | 20 |  | + | 1.1±0.08 | 0 |  |  |  | 10 | well measurable stimulatory effect; also recorded: slightly increased | 15.8±2 | 19 |  | 1±0.1 | 0 | + |  | 0 | 0 | 22±3 | Toxicity in mammalian cell lines (summary) ([3]; human, 72 h): 0/slight; Toxicity in HEK293 cell line, IC50 (HEK293 cell line; Non-toxic = not toxic up to 20 μM): Non-toxic; ABC transporter ATPase assay, ABCB1 (summary) (human ABCB1 [4]): +; ABCB1 ATPase, concentration at Vmax (human ABCB1 [4]): 12.5 µM; MIC90 of compounds in H37Rv growth test (H37Rv Mtb strain; [8]): N.I.; ABCG2 ATPase, concentration at Vmax (human ABCG2 [7]): 0.4
